In data set [1] the test system is erythrocytes in blood anticoagulated with sodium citrate. The data set can be described thus: Blood sedimentation of citrated blood left to stand in a glass tube or blood container. It counts as cell-based. The settings on record: 30 minutes. How it is done:
A solution of DIDS (Tokyo Chemical Industry Co., Ltd.) in physiological saline was added to blood anticoagulated with sodium citrate to a final concentration of 0.15 mg/ml or 1.5 mg/ml, respectively. The resulting mixture was mixed, and placed in a glass tube having a diameter of 6 mm (FIG. 1) or a blood container for measurement of thrombus formation (FIG. 2), followed by being left to stand.
A solution of DNDS (Tokyo Chemical Industry Co., Ltd.) in physiological saline was added to blood anticoagulated with sodium citrate to a final concentration of 0.02 mg/ml, 0.1 mg/ml, or 0.2 mg/ml, respectively. The resulting mixture was mixed, and placed in a glass tube having a diameter of 6 mm (FIG. 3), followed by being left to stand.
A solution of DNDS (Tokyo Chemical Industry Co., Ltd.) in physiological saline was added to blood anticoagulated with sodium citrate to a final concentration of 0.5 mg/ml or 1.0 mg/ml, respectively. The resulting mixture was mixed, and placed in a glass tube having a diameter of 6 mm. The glass tube was then inclined at an angle of 30°, and left to stand (FIG. 4).

Data set [2] has as its system citrate blood (thrombus formation; blood coagulation capacity and platelet function). Put plainly: Microchip capillary perfusion: pressure changes caused by formation of thrombi composed of fibrin and platelets. The format is cell-based. Particulars: for blood sedimentation: blood sample of the perfusion test; for thrombus formation (pressure pattern during perfusion): perfusion 10 μl/min for 30 minutes, collagen and tissue thromboplastin coated capillary. How it is done:
The apparatus described in FIG. 12 of Patent Document 1 was used.
A capillary having a width of 300 μm, depth of 80 μm, and length of 1.5 cm formed on a microchip was coated with type I collagen (manufactured by Nitta Gelatin Inc.) and tissue thromboplastin (manufactured by Sysmex Corporation). The capillary was perfused with citrate blood supplemented with CTI (corn trypsin inhibitor) (final concentration, 50 μg/ml), calcium chloride (final concentration, 12 mM), and DIDS (final concentration, 0 or 1.5 mg/ml) or DNDS (final concentration, 0.3 mg/ml) fed from a blood container at a flow rate of 10 μl/min for 30 minutes, while changes in the pressure caused by formation of thrombi composed of fibrin and platelets were continuously measured.
FIG. 5 is a graph showing the pressure patterns during the perfusion with blood samples. The pressure reflects formation of thrombi composed of fibrin and activated platelets, and comprehensively reflects the blood coagulation capacity and the platelet function. […] B represents the pressure changes in the case of the blood sample supplemented with DIDS (1.5 mg/ml), and C represents the pressure changes in the case of the perfusion with the blood supplemented with DNDS (0.3 mg/ml).

The nature of data set [3]: Solubility in water. The format is physicochemical.

SMILES strings stand for the structures.

In the case of `O=[N+]([O-])c1ccc(C=Cc2ccc([N+](=O)[O-])cc2S(=O)(=O)[O-])c(S(=O)(=O)[O-])c1.[Na+].[Na+]` [DNDS, disodium 4,4′-dinitrostilbene-2,2′-disulfonate], the “blood sedimentation relative to the control” value in data set [1] (0.02 mg/ml final concentration, 6 mm glass tube) is “suppressed”; in data set [1] (0.1 mg/ml final concentration, 6 mm glass tube) it was “suppressed”; in data set [1] (0.5 mg/ml final concentration, 6 mm glass tube inclined at an angle of 30°), “suppressed”; in data set [1] (1.0 mg/ml final concentration, 6 mm glass tube inclined at an angle of 30°) it was “suppressed”. In addition, the blood sedimentation entry in data set [1] (0.2 mg/ml final concentration, 6 mm glass tube) is reported as “almost completely suppressed”; in data set [2] (0.3 mg/ml) it was “strongly suppresses blood sedimentation”. For the same compound, the “thrombus formation (pressure pattern during perfusion)” value in data set [2] (0.3 mg/ml) is on record as “does not affect thrombus formation”. Besides, the solubility in water result in data set [3] is reported as “soluble in water”.

`O=S(=O)(O)c1cc(N=C=S)ccc1C=Cc1ccc(N=C=S)cc1S(=O)(=O)O` [DIDS, 4,4′-Diisothiocyanatostilbene-2,2′-disulfonic acid]: the blood sedimentation entry was “rather suppressed” in data set [1] (0.15 mg/ml final concentration, 6 mm glass tube or blood container for measurement of thrombus formation); “completely suppressed” in data set [1] (1.5 mg/ml final concentration, glass tube and container having an inclined bottom); “strongly suppresses blood sedimentation” in data set [2] (1.5 mg/ml). Also, the “thrombus formation (pressure pattern during perfusion)” value in data set [2] (1.5 mg/ml) is “does not affect thrombus formation”.

For the origin of these results see patent US10788502B2, “Erythrocyte sedimentation inhibitor” (FUJIMORI KOGYO CO., LTD., priority 2014, dated 2020).
